Experimental data reported in patent US20110135583A1, “Anionic Isosorbide Derivatives and Their Use (II)” (COGNIS IP […], priority 2009, published 2011).

Assay: Foam quality and foam volume test of the isosorbide sulfosuccinate
Type: physicochemical
Settings: 2.5% active substance in water, stirred to foam under standard conditions
Experimental: The foam quality and foam volume of this surfactant was tested as follows:
The isosorbide sulfosuccinate is dissolved in water at a rate of 2.5% active substance, and stirred to foam under standard conditions. According to a visual evaluation the surfactant of Example 1 has a foam quality of 4-5 on a scale of 1 (small bubbles, high cushion, stable foam) to 5 (large bubbles, unstable foam), and a foam volume equal to 32% of the foam for a standard surfactant (see FIG. 1).

In the case of “Isosorbide Lauroylester Sulfosuccinate [Example 1]”, the foam volume is reported as 32 % of the foam for a standard surfactant and the foam quality (visual evaluation, scale of 1 (small bubbles, high cushion, stable foam) to 5 (large bubbles, unstable foam)) is reported as 4-5.
